Measurements taken from patent US12187722B2, “Small molecule inhibitors of TEAD transcription factors” (The General Hospital Corporation, priority 2019, dated 2025).
Where “and” joins values, the source holds several entries; their conditions need not be identical. Equal entries are not always repeated.

target: TEAD2 (Homo sapiens (Human), UniProt Q15562); test: In vitro palmitoylation (TEAD2 autopalmitoylation, streptavidin blot); assay type: biochemical; details: Table 2, result printed in words
Sequence (Q15562 whole entry): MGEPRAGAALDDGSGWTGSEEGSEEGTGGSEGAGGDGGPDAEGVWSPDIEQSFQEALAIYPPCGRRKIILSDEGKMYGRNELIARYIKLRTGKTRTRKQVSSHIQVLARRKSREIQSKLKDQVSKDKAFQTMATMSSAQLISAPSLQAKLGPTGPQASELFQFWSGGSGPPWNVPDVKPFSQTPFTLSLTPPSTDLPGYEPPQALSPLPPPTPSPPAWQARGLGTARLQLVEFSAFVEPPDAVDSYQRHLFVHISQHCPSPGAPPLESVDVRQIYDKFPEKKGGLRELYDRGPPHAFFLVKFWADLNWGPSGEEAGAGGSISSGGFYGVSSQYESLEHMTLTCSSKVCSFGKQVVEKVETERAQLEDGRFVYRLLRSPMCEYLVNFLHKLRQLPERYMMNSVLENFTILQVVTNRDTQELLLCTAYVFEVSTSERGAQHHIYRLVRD
Method: Recombinant GST-TEAD2 or His6TEAD2 (500 ng) protein was pre-incubated with the compounds at indicated concentrations for 15 min. and then incubated with 1 μM of alkyne palmitoyl-5 CoA (Cayman Chemical) for 30 min or 50 mM MES, pH 6.4, followed by Click reaction with biotin-azide as previously described (Zheng, B. et al., J. Am. Chem. Soc., 2013, 135, 7082-7085). Click reaction was performed with 100 μM biotin-azide, 1 mM tris(2-carboxyethyl) phosphine hydrochloride (TCEP), 100 μM tris[(1-benzyl-1H-1,2,3-triazol-4-yl) methyl] amine (TBTA) and 1 mM CuSO4 for 1 h at RT.
The reactions were terminated by the addition of 12 μL of 6×SDS-sample loading buffer (50 mM Tris-HCl, pH 6.8, 6% SDS, 48% Glycerol, 0.03% Bromophenol Blue, 30 mM EDTA, 9% MeSH). Samples were analysed by SDS-PAGE and Western blot was performed by probing with streptavidin HRP and histidine HRP antibodies independently. Bands intensity obtained from streptavidin blot were quantified using BIORAD, Gel doc system and the percentage of inhibition of Tead2 auto palmitoylation is determined by comparing to the DMSO control treated samples.
These compounds were tested for activity in inhibiting TEAD2 palmitoylation in the assay described above.

Row | inhibition of TEAD2 palmitoylation (YES/NO) | Structure (SMILES)
1 | YES | O=C(O)c1ccccc1Nc1ccc(-c2cnc(-c3ccccc3)s2)cc1 [Compound 68]

same assay, conditions: compound at 10 μM

Row | inhibition at 10 µM | Structure (SMILES)
2 | 80% | N#Cc1cc(Nc2ccc(C34CC5CC(CC(C5)C3)C4)cc2)ccc1Nc1ccccc1C(=O)O

same assay, conditions: compound at 10 μM; Table 2

Row | inhibition at 10 µM | % of inhibition of TEAD2 palmitoylation at 10 μM | Structure (SMILES)
3 | 62% |  | CC(C)c1ccccc1-c1ccc(Oc2ccc(N(C)c3ccccc3C(=O)O)cc2)c(Cl)c1 [Compound 236]
4 | 86% |  | O=C(O)c1cccn1Cc1ccc(Nc2ccc(C34CC5CC(CC(C5)C3)C4)cc2Cl)cc1 [Compound 124]
5 | 10% |  | O=C(NCc1ccc(C23CC4CC(CC(C4)C2)C3)cc1)c1cccc(Nc2ccccc2C(=O)O)c1 [Compound 268]
6 | 0% |  | CN(c1ccc(S(=O)(=O)N(C)c2ccc(C34CC5CC(CC(C5)C3)C4)cc2)cc1)c1ncccc1C(=O)O [Compound 231]
7 | 25% |  | O=C(O)C1CCCCC1Nc1ccc(C23CC4CC(CC(C4)C2)C3)cc1 (stereo not drawn) [Compound 66]
8 | 86% |  | CN(c1ccc(Nc2cccc(C(=O)O)n2)cc1)c1ccc(C23CC4CC(CC(C4)C2)C3)cc1 [Compound 193]
9 | 12% |  | O=C(O)C1CCNCC1Nc1ccc(Nc2ccc(C34CC5CC(CC(C5)C3)C4)cc2Cl)cc1 (stereo not drawn) [Compound 88]
10 | 85% |  | CCCCN(c1ccccc1)c1ccc(Nc2ccc(Nc3ccccc3C(=O)O)cc2)cc1 [Compound 174]
11 | 89% |  | CC12CC3CC(C)(C1)CC(c1ccc(NC(=O)c4ccc(Nc5ccccc5C(=O)O)cc4)cc1)(C3)C2 [Compound 216]
12 | 91% |  | O=C(Nc1ccccc1C(=O)O)c1ccc(Nc2ccc(C34CC5CC(CC(C5)C3)C4)cc2Cl)cc1 [Compound 229]
13 | 65% |  | O=C(O)c1ccccc1Nc1ccnc(Nc2ccc(C34CC5CC(CC(C5)C3)C4)cc2Cl)n1 [Compound 62]
14 | 98% |  | O=C(O)c1ccccc1C(=O)Nc1ccc(Nc2ccc(C34CC5CC(CC(C5)C3)C4)cc2Cl)cc1 [compound 279]
15 | 87% |  | O=C(O)/C=C/c1ccccc1Nc1ccc(Nc2ccc(C34CC5CC(CC(C5)C3)C4)cc2)cc1 [Compound 245]
16 | 50% |  | CCCCN(c1ccccc1)c1ccc(Nc2ccc(Nc3ncccc3C(=O)O)cc2)cc1 [Compound 255]
17 | 77% |  | CC1(C)OC(C(=O)O)C(C(=O)Nc2ccc(Nc3ccc(C45CC6CC(CC(C6)C4)C5)cc3Cl)cc2)O1 (stereo not drawn) [Compound 102]
18 | 97% |  | O=C(O)c1ccccc1C(=O)Nc1cccc(Nc2ccc(C34CC5CC(CC(C5)C3)C4)cc2)c1 [compound 292]
19 |  | 35% and 58% | O=C(Nc1ccc(C23CC4CC(CC(C4)C2)C3)cc1Cl)c1cccc(Nc2ccccc2C(=O)O)c1 [Compound 242]

Row | inhibition at 10 µM | % of inhibition of TEAD2 palmitoylation at 10 μM | Structure (SMILES)
20 | 17% |  | NC1(C(=O)Nc2ccc(Nc3ccc(C45CC6CC(CC(C6)C4)C5)cc3Cl)cc2)CC1 [compound 280]
21 | 101% |  | O=C(O)c1cncc(Nc2cc(C(F)(F)F)cc3[nH]c4ccc(C56CC7CC(CC(C7)C5)C6)cc4c23)c1 [Compound 151]
22 |  | 63% and 86% | O=C(Nc1ccc(C23CC4CC(CC(C4)C2)C3)cc1)c1ccc(Nc2ccccc2C(=O)O)cc1 [Compound 35]
23 | 34% |  | O=C(Nc1ccc(Nc2ccccc2C(=O)O)cc1)Nc1ccc(C23CC4CC(CC(C4)C2)C3)cc1 [Compound 189]
24 | 54% |  | O=C(Nc1ccc(Nc2cccc(C(=O)O)n2)cc1)Nc1ccc(C23CC4CC(CC(C4)C2)C3)cc1 [Compound 182]
25 | 27% |  | O=C(O)c1cn(Cc2cccc(Nc3ccc(C45CC6CC(CC(C6)C4)C5)cc3Cl)c2)cn1 [Compound 127]
26 | 6% |  | Cn1c(-c2ccc(Nc3ccc(C45CC6CC(CC(C6)C4)C5)cc3)cc2)nc2c(C(=O)O)cccc21 [Compound 199]
27 | 65% |  | CN(c1ccc(Nc2ncccc2C(=O)O)cc1)c1ccc(C23CC4CC(CC(C4)C2)C3)cc1Cl [Compound 142]
28 | 79% |  | O=C(O)c1ccccc1Nc1cnc(Oc2ccc(C3CCCCC3)cc2Cl)cn1 [compound 441]
29 | 62% |  | CCCCN(CCCC)c1ccc(NC(=O)c2ccc(Nc3ccccc3C(=O)O)cc2)cc1 [Compound 170]
30 | 80% |  | O=C(O)c1cccnc1Nc1cccc(Nc2cccc(C34CC5CC(CC(C5)C3)C4)c2)c1 [Compound 111]
31 | 56% | 69% | O=C(Nc1ccc(C23CC4CC(CC(C4)C2)C3)cc1)c1ccc(Nc2cccc(C(=O)O)n2)cc1 [Compound 148]
32 | 67% |  | O=C(O)c1cncc(Nc2ccc(Nc3ccc(C45CC6CC(CC(C6)C4)C5)cc3Cl)cc2)n1 [Compound 115]
33 | 1% |  | COc1cc(Nc2ccc(Nc3ccc(C45CC6CC(CC(C6)C4)C5)cc3)cc2)c(C(=O)O)c(OC)c1 [Compound 249]
34 | 52% |  | CNC(=O)c1ccccc1Nc1ccc(Nc2ccc(C34CC5CC(CC(C5)C3)C4)cc2Cl)cc1 [compound 276]
35 | 78% |  | CC12CC3CC(C)(C1)CC(c1ccc(NS(=O)(=O)c4ccc(Nc5ncccc5C(=O)O)cc4)c(Cl)c1)(C3)C2 [Compound 265]

same assay, conditions: compound at 10 μM; Table 3

Row | inhibition at 10 µM | Structure (SMILES)
36 | 85% | Cc1cc(C(=O)Nc2cccc(C(=O)O)c2)ccc1Nc1ccc(C2CCCCC2)cc1 [CP-651]
37 | 67% | O=C(O)c1cccc(NC(=O)c2ccc(Nc3ccc(C4CCCCC4)cc3)cc2)c1 [CP-638]
38 | 55% | Cc1cc(C(=O)Nc2ccc(C3CCCCC3)cc2)ccc1Nc1cccc(C(=O)O)n1 [CP-642]
39 | 39% | Cc1cc(N(C)c2ccc(C3CCCCC3)cc2)ccc1Nc1ccc(C2CC2)cc1C(=O)O [CP-630]
40 | 96% | O=C(Nc1ccc(C2CCCCC2)cc1Cl)c1cccc(Nc2ncccc2C(=O)O)c1 [CP-665]
41 | 74% | COc1ccc(Nc2ccc(N(C)c3ccc(C4CCC(F)(F)CC4)cc3)cc2)c(C(=O)O)c1 [CP-552]
42 | 74% | COc1ccc(Nc2ccc(N(C)c3ccc(S(F)(F)(F)(F)F)cc3)cc2F)c(C(=O)O)c1 [CP-573]
43 | 6% | COc1ccc(Nc2ccc(N(C)c3ccccc3OC)cc2)c(C(=O)O)c1 [CP-545]
44 | 75% | COc1ccc(Nc2cccc(C(=O)Nc3ccc(C4CCCCC4)cc3Cl)c2)c(C(=O)O)c1 [CP-669]
45 | 40% | COc1ccc(Nc2ccc(N(C)c3ccc(C4CCCCC4)cn3)cc2)c(C(=O)O)c1 [CP-581]
46 | 20% | COc1ccc(Nc2ccc(N(C)c3ccc(C45CC6CC(CC(C6)C4)C5)cc3)cc2)c(CO)c1 [CP-516]
47 | 63% | CNC(=O)c1cc(OC)ccc1Nc1ccc(N(C)c2ccc(C(F)(F)F)cc2)cc1 [CP-606]
48 | 54% | COc1ccc(Nc2cnc(N(C)c3ccc(C4CCCCC4)cc3)cc2C)c(C(=O)O)c1 [CP-609]
49 | 87% | Cc1cc(N(C)c2ccc(OC(F)(F)F)cc2)ccc1Nc1cccc(C(=O)O)n1 [CP-647]
50 | 76% | COc1ccc(Nc2ccc(N(C)c3ccc(C(F)(F)F)c(Cl)c3)cc2)c(C(=O)O)c1 [CP-617]
51 | 79% | O=C(Nc1ccc(C2CCCCC2)cc1Cl)c1cccc(Nc2ccccc2C(=O)O)c1 [CP-666]
52 | 81% | Cc1ccc(Nc2ccc(N(C)c3ccc(C4CCCCC4)cc3)cc2C)c(C(=O)O)c1 [CP-631]
53 | 47% | Cc1cc(N(C)c2ccc(C3CCCCC3)cc2)ccc1Nc1ccc(N2CCOCC2)cc1C(=O)O [CP-621]
